How the values were obtained:
anti-HBc [1] = assay: CORAB radioimmunoassay for anti-HBc (competitive), with reducing agent added to the sample; format: binding, human; settings: for inhibition in the Corab assay: presence of metabisulfite
Protocol: 0.1 ml samples in groups I and II were placed in duplicate reaction wells, along with negative and positive controls, and 10 ul of 0.3% 2-mercaptoethanol (2-ME) in H2 O was added to one each of the duplicates, while 10 ul H2 O was added to the other. 0.1 ml of ^125 I-labeled anti-HBc was added to all wells, followed by an HBcAg-coated 1/4 inch polystyrene bead to all wells. Trays were gently shaken and allowed to incubate overnight at room temperature. All beads were washed 3 times with distilled water and transferred to test tubes for counting for 1 minute in a gamma scintillation counter. The positivity or negativity of each was calculated, as was the degree (%) inhibition from negative control for each specimen both with and without reducing reagent according to the formula: [formula] By this calculation, a sample giving a value equal to or greater than 50% is judged as positive in the test. The effect of the addition of the reducing reagents to the specimens was evaluated by several criteria:
Plasma samples designated 25, 31, 76, 91, 177 and 189 were tested with a commercially available anti-HBc kit (Corab®, Abbott Laboratories, North Chicago, Ill.) with and without addition of 10 ul of a reducing agent, 0.5M sodium metabisulfite. Also, as in Example 4, samples were tested with and without addition of 26.3 ul of a positive anti-HBc sample (Panel 5). […] Samples 31 and 91 are discrepant samples which are confirmed as negative upon addition of the reducing agent.

anti-HBc [2] = assay: Microparticle chemiluminescence immunoassay for anti-HBc, with cysteine; format: binding, human
Protocol: Recombinant DNA hepatitis B core antigen (rHBcAg) was coupled to carboxylated polystyrene latex microparticles (Seragen Diagnostics, Indianapolis, Ind., 0.188 um) using a two-step procedure. First, purified polyclonal human anti-HBc at 2.7 ug/mg latex particles in the presence of normal human serum (1.0 ul/mg) was coupled using 1-ethyl-3-(3-dimethylaminopropyl) carbodiimide (EDAC, 43 ug/mg) in 0.015M MES buffer (2-[N-morpholino] ethanesulfonic acid), pH 4.8, for 2 hours at room temperature. Bangs, "Uniform Latex Particles", Seragen Diagnostics, 1984. The antibody undercoated particles were then washed three times in 0.1M Tris buffer, pH 7.2, containing 0.9% NaCl, 0.03% EDTA and 0.05% Tween-20 by centrifugation (40,000×g for 20 minutes) and resuspended in 0.1M Tris buffer, pH 7.2, containing 0.9% NaCl, 0.03% EDTA and 0.03% bovine serum albumin. rHBcAg (0.2 ug/mg) was then immunologically adsorbed on the undercoated particles by slow rotation overnight at room temperature. Particles were washed three times as before and dispersed through a 25 gauge needle and stored in 0.01M sodium phosphate, pH 7.2, containing 0.15M NaCl, 0.1% bovine serum albumin, 0.01% Tween-20 and 0.1% sodium azide (Microparticle Diluent). Percent solids was determined by light scattering at 500 nanometers. Coated particles were stored concentrated (typically 5-10% solids) and diluted in storage buffer to a working concentration (0.036%) before each assay. In an alternative method, rHBcAg was coupled directly to the microparticles by the EDAC method. The anti-HBc undercoating method is preferred.
Acridinium-labeled purified anti-HBc (human) was prepared using an EDAC coupling procedure on the active ester. Briefly, 1 mg of B-alanine acridinium was dissolved in 100 ul anhydrous DMF and activated by sequential addition of 50 ul N-hydroxylsuccinimide (NHS) (5.75 mg/ml) and 50 ul EDAC (19.2 mg/ml) (molar ratio NHS:EDAC=1:2). The reaction proceeded in the dark at room temperature for 30 minutes. Protein A purified human anti-HBc was dialyzed (3×) against PBS, 0.5% CHAPS, pH 6.3, overnight at 2°-8° C. Activated acridinium was added to dialyzed antibody (30:1 molar excess) and the reaction mixture stirred for 30 minutes at room temperature. After dialysis versus the same buffer, the preparation was centrifuged and the supernatant chromatographed on a Beckman TSK 250 HPLC column equilibrated with the same buffer. Individual fractions (1 ml) were analyzed by UV spectroscopy at 369 and 280 nm to determine incorparation of acridinium (typically 3:1).
100 ul duplicates of samples including a sensitivity panel sample (1.23 Paul Erhlich Units/ml, Panel 7), two samples, S9 and S14, which were similar in anti-HBc reactivity to Group II samples described above, and negative and positive controls were added to a microtiter plate. […] 50 ul of the HBcAg-coated microparticles (0.036% solids) were added to all wells. This reaction mixture was incubated for 20 minutes in a 40° water bath.
166 ul of each reaction mixture was transferred to a microparticle capture/flow-through glass fiber filter funnel (Abbott Laboratories, North Chicago, Ill.) which was prewetted with 50 ul of 0.1% Tween-20. Each capture membrane was then washed twice with 50 ul of 0.1% Tween-20. 20 ul of the acridinium-labeled anti-HBc (375 ng/ml) was added to the surface of each capture membrane and incubated at room temperature for 20 minutes. The capture membranes were then washed twice with 100 ul and once with 50 ul of 0.1% Tween-20.
The membranes were then transferred to a chemiluminescence reader where approximately 100 ul of a trigger solution comprising 0.3% H2 O2 in 0.25N NaOH was delivered to each membrane. The amount of light generated by the acridinium-labelled reagent bound to the microparticles was determined and is inversely proportional to the amount of anti-HBc present in the sample. […] There was a 10-20% signal loss in the negative control in the presence of cysteine. […]

anti-HBc [3] = assay: Sephacryl S-300 fractions assayed for anti-HBc activity by microparticle assay, with cysteine; format: binding
Protocol: Briefly, 2 ml of recalcified Sample 209 was applied to a Sephacryl S-300 column (2.5×50 cm) equilibrated with PBS. 2.5 ml fractions were collected at a flow rate of 20 ml/hr. Fractions were assayed using the microparticle assay of Example 3 except that an approximately 5 fold increase in sensitivity was implemented by using increasing incubation time and decreasing the amount of anti-HBc conjugate. […] The first inhibitory peak was not detected when assayed in the presence of cysteine. The second and major inhibitory peak, which co-eluted with the IgG protein peak, was unaffected by cysteine treatment. The immunoglobulin G associated anti-HBc activity is specific for non-acute hepatitis B infection.
3 ml of a borderline positive sample (Sample 9) was tested according to the procedure of Example 9. […] In the absence of reducing agent, a single inhibitory peak was seen near the void volume of the column. This peak was not detected when assayed in the presence of cysteine, and was clearly resolved form the IgG protein peak. This non-IgG reactivity is not believed to be a result of Hepatitis B infection and is therefore nonspecific.

O=S([O-])S(=O)(=O)[O-].[Na+].[Na+] [MBS, sodium metabisulfite]
<cpm> (anti-HBc [1]; 10 ul 0.5M MBS, NC): 20856 cpm | % I (percent inhibition) (anti-HBc [1]; 10 ul 0.5M MBS, NC spiked with Panel 5): 73.6% | <cpm> (anti-HBc [1]; 10 ul 0.5M MBS, PC): 350 cpm | % I (percent inhibition) (anti-HBc [1]; 10 ul 0.5M MBS, Panel 7): 71.0% | <Sx*> % I (anti-HBc [1]; 10 ul 0.5M MBS, mean of samples spiked with Panel 5): 74.8% | <Sx> % I (anti-HBc [1]; 10 ul 0.5M MBS, mean of unspiked samples): 11.4% | % I (percent inhibition) (anti-HBc [1]; 10 ul 0.5M MBS, sample OBI 25): 7.6% | % I (percent inhibition) (anti-HBc [1]; 10 ul 0.5M MBS, sample OBI 25 spiked with Panel 5): 74.3% | % I (percent inhibition) (anti-HBc [1]; 10 ul 0.5M MBS, sample OBI 31): 10.4% | % I (percent inhibition) (anti-HBc [1]; 10 ul 0.5M MBS, sample OBI 31 spiked with Panel 5): 75.6% | % I (percent inhibition) (anti-HBc [1]; 10 ul 0.5M MBS, sample OBI 76): 5.8% | % I (percent inhibition) (anti-HBc [1]; 10 ul 0.5M MBS, sample OBI 76 spiked with Panel 5): 74.2% | % I (percent inhibition) (anti-HBc [1]; 10 ul 0.5M MBS, sample OBI 91): 10.8% | % I (percent inhibition) (anti-HBc [1]; 10 ul 0.5M MBS, sample OBI 91 spiked with Panel 5): 75.0% | % I (percent inhibition) (anti-HBc [1]; 10 ul 0.5M MBS, sample OBI 177): 31.5% | % I (percent inhibition) (anti-HBc [1]; 10 ul 0.5M MBS, sample OBI 177 spiked with Panel 5): 74.4% | % I (percent inhibition) (anti-HBc [1]; 10 ul 0.5M MBS, sample OBI 189): 2.5% | % I (percent inhibition) (anti-HBc [1]; 10 ul 0.5M MBS, sample OBI 189 spiked with Panel 5): 75.1% | effect on anti-HBc positive samples (anti-HBc [1]; Panel 7 and samples spiked with Panel 5): not affected | absolute values for negative and positive controls (anti-HBc [1]; Table I): not affected significantly | inhibition in the Corab assay (anti-HBc [1]; Sample 9): 5.2% | inhibition in the Corab assay (anti-HBc [1]; Sample 209): 86.3%

N[C@@H](CS)C(=O)O [cysteine]
COUNTS (anti-HBc [2]; 200 mM cysteine solution (EDTA, DTT), Negative Control): 23992 COUNTS | % I (percent inhibition) (anti-HBc [2]; 200 mM cysteine solution (EDTA, DTT), Panel 7): 76.3% | % I (percent inhibition) (anti-HBc [2]; 200 mM cysteine solution (EDTA, DTT), Plasma S9): 3.2% | % I (percent inhibition) (anti-HBc [2]; 200 mM cysteine solution (EDTA, DTT), Plasma S14): 3.0% | COUNTS (anti-HBc [2]; 200 mM cysteine solution (EDTA, DTT), Positive Control): 5000 COUNTS | <cpm> (anti-HBc [2]; 10 ul 0.75M cysteine fresh, NC): 20856 cpm | % I (percent inhibition) (anti-HBc [2]; 10 ul 0.75M cysteine fresh, NC spiked with Panel 5): 80.8% | <cpm> (anti-HBc [2]; 10 ul 0.75M cysteine fresh, PC): 4035 cpm | % I (percent inhibition) (anti-HBc [2]; 10 ul 0.75M cysteine fresh, Panel 7): 80.7% | average percent inhibition (anti-HBc [2]; 10 ul 0.75M cysteine fresh, plasma samples spiked with Panel 5): 71.5% | % I (percent inhibition) (anti-HBc [2]; 10 ul 0.75M cysteine fresh, sample 52): 6.2% | % I (percent inhibition) (anti-HBc [2]; 10 ul 0.75M cysteine fresh, sample 52 spiked with Panel 5): 67.9% | % I (percent inhibition) (anti-HBc [2]; 10 ul 0.75M cysteine fresh, sample 71): 36.0% | % I (percent inhibition) (anti-HBc [2]; 10 ul 0.75M cysteine fresh, sample 71 spiked with Panel 5): 69.9% | % I (percent inhibition) (anti-HBc [2]; 10 ul 0.75M cysteine fresh, sample 166): 54.0% | % I (percent inhibition) (anti-HBc [2]; 10 ul 0.75M cysteine fresh, sample 166 spiked with Panel 5): 80.8% | % I (percent inhibition) (anti-HBc [2]; 10 ul 0.75M cysteine fresh, sample 189): 11.1% | % I (percent inhibition) (anti-HBc [2]; 10 ul 0.75M cysteine fresh, sample 189 spiked with Panel 5): 70.5% | % I (percent inhibition) (anti-HBc [2]; 10 ul 0.75M cysteine fresh, sample 277): -2.5% | % I (percent inhibition) (anti-HBc [2]; 10 ul 0.75M cysteine fresh, sample 277 spiked with Panel 5): 68.6% | average percent inhibition (anti-HBc [2]; 10 ul 0.75M cysteine fresh, unspiked plasma samples): 21.0% | mean counts (anti-HBc [2]; Example 5, + cysteine reagent, Negative control): 24494 counts | % I (percent inhibition) (anti-HBc [2]; Example 5, + cysteine reagent, Panel 5): 86.7% | % I (percent inhibition) (anti-HBc [2]; Example 5, + cysteine reagent, Panel 6): 85.3% | % I (percent inhibition) (anti-HBc [2]; Example 5, + cysteine reagent, Panel 7): 77.2% | % I (percent inhibition) (anti-HBc [2]; Example 5, + cysteine reagent, Panel 8): 53.5% | % I (percent inhibition) (anti-HBc [2]; Example 5, + cysteine reagent, Panel 9): 21.0% | mean counts (anti-HBc [2]; Example 5, + cysteine reagent, Positive control): 5678 counts | activity (interfering factor) in Group II type samples (anti-HBc [2]; S9 and S14, presence of cysteine): eliminated | signal loss in the negative control (anti-HBc [2]; presence of cysteine): 10-20% | single inhibitory peak near the void volume (anti-HBc [3]; Sample 9, presence of cysteine): not detected | second and major inhibitory peak (co-eluted with IgG) (anti-HBc [3]; Sample 209, cysteine treatment): unaffected | first inhibitory peak (anti-HBc [3]; Sample 209, presence of cysteine): not detected

Reference: patent publication US5681695A, “Method for increasing specificity in competitive immunoassays” (priority 1994, dated 1997)
